Experimental findings from ChEMBL document CHEMBL1143457, “Benzyl ether structure-activity relationships in a series of ketopiperazine-based renin inhibitors” (Bioorg Med Chem Lett, 2005) are described below.

In data set [1] the target is T1, Renin (Homo sapiens, UniProt P00797).
T1 sequence (P00797 whole entry): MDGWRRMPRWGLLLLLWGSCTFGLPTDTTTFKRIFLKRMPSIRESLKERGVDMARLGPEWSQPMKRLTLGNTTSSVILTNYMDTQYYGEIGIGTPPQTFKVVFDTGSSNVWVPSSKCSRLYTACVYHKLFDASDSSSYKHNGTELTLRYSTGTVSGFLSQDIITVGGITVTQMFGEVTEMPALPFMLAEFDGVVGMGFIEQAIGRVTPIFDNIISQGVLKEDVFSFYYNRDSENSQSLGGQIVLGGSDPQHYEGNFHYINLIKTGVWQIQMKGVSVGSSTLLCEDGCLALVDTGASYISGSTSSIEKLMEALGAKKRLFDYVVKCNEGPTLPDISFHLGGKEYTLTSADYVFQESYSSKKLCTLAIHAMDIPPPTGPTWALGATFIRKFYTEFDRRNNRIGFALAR
In words: Inhibitory activity against renin in fluorescent tGFP assay.

A short description of data set [2]: Distribution coefficient at PH 7.4 was determined. The conditions noted are these: octanol/water. The data set is classed as physicochemical.
The target in data set [3] is CYP3A4 (Homo sapiens, UniProt P08684). In words: Inhibition of CYP3A4 at 3 uM was measured using fluorogenic substrate 7-Benzyloxy-4-(trifluoromethyl)-coumarin. Format: ADME. Conditions: probe 7-Benzyloxy-4-(trifluoromethyl)-coumarin.
CYP3A4, sequence (P08684 whole entry): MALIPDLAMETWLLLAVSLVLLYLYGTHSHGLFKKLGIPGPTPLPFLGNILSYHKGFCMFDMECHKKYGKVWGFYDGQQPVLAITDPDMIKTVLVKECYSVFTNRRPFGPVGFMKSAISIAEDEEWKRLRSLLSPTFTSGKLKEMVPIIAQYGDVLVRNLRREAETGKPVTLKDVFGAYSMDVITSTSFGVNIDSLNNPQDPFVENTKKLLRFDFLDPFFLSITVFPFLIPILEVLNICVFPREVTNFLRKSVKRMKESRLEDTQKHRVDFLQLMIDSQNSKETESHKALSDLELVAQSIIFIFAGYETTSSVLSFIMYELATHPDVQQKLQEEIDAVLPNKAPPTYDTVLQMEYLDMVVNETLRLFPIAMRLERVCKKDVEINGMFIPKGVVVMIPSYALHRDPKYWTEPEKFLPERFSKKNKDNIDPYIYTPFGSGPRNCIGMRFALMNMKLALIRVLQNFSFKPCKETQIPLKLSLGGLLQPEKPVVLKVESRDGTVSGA
Data set [4] is described as follows: Apparent solubility was measured at PH 6.5 by nepholometric method. Format: ADME. Conditions: buffer.

Values after ≈ are worked out from the molar mass of the structure shown.

In data set [1], `COc1ccccc1COCCCOc1ccc(N2C(=O)CNC[C@@H]2COCc2ccc(F)c(F)c2)cc1` yielded an IC50 of 250 nM.
Same read-out and setting: the same measure for `COc1ccccc1COCCCOc1ccc(N2C(=O)CNC[C@@H]2COCc2cccc(Cl)c2)cc1`: 330 nM; for `COc1ccccc1COCCCOc1ccc(N2C(=O)CNC[C@@H]2COc2ccc3c(c2)N(CCNC(C)=O)CCC3)cc1`: 0.4 nM.
The same measure, in the same setting: for `COc1ccccc1COCCCOc1ccc(N2C(=O)CNC[C@@H]2COCc2ccccn2)cc1` the value was over 1000 nM.
As to `COc1ccccc1COCCCOc1ccc(N2C(=O)CNC[C@@H]2COCc2cccnc2)cc1`, in data set [2], the logD amounted to 2.9. This compound had an inhibition at 3 µM in data set [3] of 44%. The IC50 in data set [1] stood at 120 nM. The kinetic solubility in data set [4] was 100 µg/mL (≈ 203 µM).
In turn, `COc1ccccc1COCCCOc1ccc(N2C(=O)CNC[C@@H]2COCc2cccc(C(F)(F)F)c2F)cc1` came in with an IC50 in data set [1] of 270 nM.
On the same count and under the same terms, for `COc1ccccc1COCCCOc1ccc(N2C(=O)CNC[C@@H]2COCc2ccc(F)cc2Cl)cc1` the value was 410 nM; for `COc1ccccc1COCCCOc1ccc(N2C(=O)CNC[C@@H]2COCc2ccc(C(F)(F)F)cc2)cc1`, 6800 nM.
For `COc1ccccc1COCCCOc1ccc(N2C(=O)CNC[C@@H]2COCc2ccc(F)c(C(F)(F)F)c2)cc1`, in data set [2], the logD amounted to 3.7. 3 µM produced 87% inhibition in data set [3]. For the same compound, half-maximal inhibition in data set [1] (IC50) was put at 140 nM. Besides, in data set [4], the kinetic solubility is 7 µg/mL (≈ 12.1 µM).
`COc1ccccc1COCCCOc1ccc(N2C(=O)CNC[C@@H]2COCc2cccc(C#N)c2)cc1` showed an IC50 in data set [1] of 1200 nM.
In data set [1], `COc1ccccc1COCCCOc1ccc(N2C(=O)CNC[C@@H]2COCc2ccc(Cl)cc2)cc1` yielded an IC50 of 300 nM.
As for `COc1cccc(COC[C@H]2CNCC(=O)N2c2ccc(OCCCOCc3ccccc3OC)cc2)c1`, the IC50 in data set [1] is 600 nM.
Consider `COc1ccccc1COCCCOc1ccc(N2C(=O)CNC[C@@H]2COCc2ccncc2)cc1`, for which the IC50 in data set [1] is over 1000 nM.
Compound `COc1ccccc1COCCCOc1ccc(N2C(=O)CNC[C@@H]2COCc2ccccc2OC)cc1` showed an IC50 in data set [1] of 900 nM.
Still for that read-out and setting: for `COc1ccccc1COCCCOc1ccc(N2C(=O)CNC[C@@H]2COCc2ccc(F)c(C)c2)cc1` the value was 270 nM.
Take `COc1ccccc1COCCCOc1ccc(N2C(=O)CNC[C@@H]2COCc2ccc(Cl)c(C(F)(F)F)c2)cc1`: the logD in data set [2] worked out at 3.7. Besides, in data set [3], the inhibition at 3 µM is 97%. In data set [1], this compound returned an IC50 of 120 nM. The kinetic solubility in data set [4] turned out to be 3 µg/mL (≈ 5.06 µM).
Take `COc1ccccc1COCCCOc1ccc(N2C(=O)CNC[C@@H]2COCc2ccccc2F)cc1`: the IC50 in data set [1] turned out to be 230 nM.
`COc1ccccc1COCCCOc1ccc(N2C(=O)CNC[C@H]2COCc2cccnc2)cc1` registered an IC50 in data set [1] of over 10000 nM.
Same read-out and setting: the same measure for `COc1ccccc1COCCCOc1ccc(N2C(=O)CNC[C@@H]2COCc2cccc(C(F)(F)F)c2)cc1`: 230 nM; for `COc1ccccc1COCCCOc1ccc(N2C(=O)CNC[C@@H]2COCc2ccc(C)c(Cl)c2)cc1`: 260 nM.
`COc1ccccc1COCCCOc1ccc(N2C(=O)CNC[C@H]2COCc2ccc(Cl)c(C(F)(F)F)c2)cc1`: half-maximal inhibition in data set [1] (IC50) was put at 594 nM.
In data set [1], `COc1ccccc1COCCCOc1ccc(N2C(=O)CNC[C@@H]2COCc2cc(Cl)cc(Cl)c2)cc1` had an IC50 of 180 nM.
Still for that read-out and setting: for `COc1ccccc1COCCCOc1ccc(N2C(=O)CNC[C@@H]2COCc2cc(F)cc(F)c2)cc1` the value was 1600 nM; for `COc1ccccc1COCCCOc1ccc(N2C(=O)CNC[C@@H]2COCc2cccc(OC(F)(F)F)c2)cc1`, 410 nM; for `COc1ccccc1COCCCOc1ccc(N2C(=O)CNC[C@@H]2COCc2ccccc2C(F)(F)F)cc1`, 270 nM.

As usually defined, the IC50 is the concentration that inhibits the measured activity by half. A higher IC50 goes with a need for much substance. Usually logD stands for the decadic logarithm of the distribution of all forms, ionised or not, between an organic phase and buffer at a given pH. For orientation: inhibition means how much of the control response was suppressed. Higher therefore signals strong suppression. By kinetic solubility is commonly meant solubility judged after dilution from a stock solution rather than from solid.
